For data set [1] the following is noted: cited from earlier work.
The test system of a further data set is CD3+CD19+ T cells. Put plainly: In vitro exposure to AP1903 of patient CD3+CD19+ T cells 5 months after treatment. Format: cell-based, human. To be noted: patient 2, FACS and quantitative PCR.
In data set [2] the test system is F-Casp9M.I.GFPhigh-transduced T cells. Nature of the data set: Annexin-V/7-AAD staining and microscopy of F-Casp9M.I.GFPhigh-transduced T cells after CID. The settings on record: zVAD-fmk 100 μM for 1 hour prior to adding CID. Format: cell-based, human.
The subject of the next data set is iCasp9-transduced MSCs. Nature of the data set: Apoptosis of undifferentiated iCasp9-transduced MSCs after CID (annexin V-PE/7-AAD FACS). The class given is cell-based, human. The method, then:
Undifferentiated MSCs. The chemical inducer of dimerization (CID) (AP20187; ARIAD Pharmaceuticals, Cambridge, Mass.) was added at 50 nM to iCasp9-transduced MSCs cultures in complete medium. Apoptosis was evaluated 24 hours later by FACS analysis, after cell harvest and staining with annexin V-PE and 7-AAD in annexin V binding buffer (BD Biosciences, San Diego, Calif.). Control iCasp9-transduced MSCs were maintained in culture without exposure to CID.

Data set [3] has as its system gene-modified allodepleted cells. Nature of the data set: Induction of apoptosis with AP20187 in gene-modified allodepleted cells (annexin V/7-AAD). Format: cell-based, human. Here is the method: (§1) Suicide gene functionality was assessed by adding a small molecule synthetic homodimerizer, AP20187 (Ariad Pharmaceuticals; Cambridge, Mass.), at 10 nM final concentration the day following CD19 immunomagnetic selection. Cells were stained with annexin V and 7-amino-actinomycin (7-AAD)(BD Pharmingen) at 24 hours and analyzed by flow cytometry. Cells negative for both Annexin V and 7-AAD were considered viable, cells that were annexin V positive were apoptotic, and cells that were both annexin V and 7-AAD positive were necrotic. The percentage killing induced by dimerization was corrected for baseline viability as follows: Percentage killing=100%−(% Viability in AP20187-treated cells÷% Viability in nontreated cells).
Cells were maintained in T cell medium containing 50 U/ml IL-2 until 22 days after transduction. A portion of cells was reactivated on 24-well plates coated with […] OKT3 and 1 μg/ml anti-CD28 (Clone CD28.2, BD Pharmingen, San Jose, Calif.) for 48 to 72 hours. CD19 expression and suicide gene function in both reactivated and non-reactivated cells were measured on day 24 or 25 post transduction.

For the next data set, the system named is non-transduced cells. Nature of the data set: Viability of non-transduced cells with AP20187. The settings on record: non-transduced cells (n=6). The class given is cell-based, human. The method, then:
as §1
The day following immunomagnetic selection, 10 nM of the chemical inducer of dimerization, AP20187, was added to induce apoptosis, which appeared within 24 hours. […] Killing efficiency after correction for baseline viability was about 92.9%±3.8%. Large-scale CD19 selection produced cells that were killed with similar efficiency as small-scale selection: mean viability with and without AP20187, and percentage killing, in large and small scale were about 3.9%, about 84.0%, about 95.4% (n=3) and about 6.6%, about 79.3%, about 91.4% (n=5) respectively. […]

In data set [4] the test system is EBV-specific and CMV-specific T cells. Nature of the data set: Pentamer analysis of virus-specific T cells after AP20187 treatment of allostimulated cells. The class given is cell-based, human. To be noted: 3 weeks post transduction; 4 days allogeneic PBMC; 10 nM AP20187. The method, then:
In some experiments, cells also were cultured for 3 weeks post transduction and stimulated with 30G-irradiated allogeneic PBMC at a responder:stimulator ratio of 1:1. After 4 days of co-culture, a portion of cells was treated with 10 nM AP20187. Killing was measured by annexin V/7-AAD staining at 24 hours, and the effect of dimerizer on bystander virus-specific T cells was assessed by pentamer analysis on AP20187-treated and untreated cells.
An observation of note was that many virus-specific T cells were spared when dimerizer was used to deplete gene-modified cells that have been re-activated with allogeneic PBMC, rather than by non-specific mitogenic stimuli. […] Gene-modified allodepleted cells were maintained in culture for 3 weeks post-transduction to allow transgene down-modulation. Cells were stimulated with allogeneic PBMC for 4 days, following which a portion was treated with 10 nM AP20187. The frequency of EBV-specific T cells (see FIG. 14A) and CMV-specific T cells (see FIG. 14B) were quantified by pentamer analysis before allostimulation, after allostimulation, and after treatment of allostimulated cells with dimerizer. The percentage of virus-specific T cells decreased after allostimulation. Following treatment with dimerizer, virus-specific T cells were partially and preferentially retained.

Data set [5] relates to iCasp9-ΔCD19-transduced MSCs. Nature of the data set: In vivo killing of iCasp9-transduced MSCs in SCID mice (luminescence imaging, qPCR). Also on record: species or system mouse. On the technique in general: Quantitative PCR measures a nucleic acid by following its amplification.
Data set [6] concerns iCasp9M.IRES.IL-12-transduced cells. Nature of the data set: IL-12 ELISA of culture supernatant of iCasp9M.IRES.IL-12-transduced EBV-CTLs after CID. Format: cell-based, human. To be noted: after 10 nM CID; detection limit 7.8 pg/mL.
Data set [7] deals with iCasp9M.IRES.GFPhigh-transduced CTLs. Put plainly: SCID mouse-human xenograft model: human CD3+/GFP+ T cells in tumors after CID. Format: in vivo. The settings on record: single dose of CID (50 μg AP20187 intraperitoneally); tumors analyzed three days later; versus carrier; listed as dimerizer. A general note: In xenograft studies the graft and the host belong to different species.

Where [8] appears, read: two injections of 50 μg of CID 24 hours apart, seven days after implantation.

The text below walks through data of US9393292B2, “Methods for inducing selective apoptosis” (priority 2010, dated 2016).

Residues, ends and D or L forms follow the SMILES beside them. *: point of attachment. Cbz = O=C(OCc1ccccc1)*; CH2F = FC*

For the compound `CC[C@H](C(=O)N1CCCC[C@H]1C(=O)O[C@H](CCc1ccc(OC)c(OC)c1)c1cccc(OCC(=O)NCCNC(=O)COc2cccc([C@@H](CCc3ccc(OC)c(OC)c3)OC(=O)[C@@H]3CCCCN3C(=O)[C@@H](CC)c3cc(OC)c(OC)c(OC)c3)c2)c1)c1cc(OC)c(OC)c(OC)c1` (relative stereo) [AP1903, 2-Piperidinecarboxylic acid, 1-[(2S)-1-oxo-2-(3,4,5-trimethoxyphenyl)butyl]-, 1,2-ethanediylbis[imino(2-oxo-2,1-ethanediyl)oxy-3,1-phenylene[(1R)-3-(3,4-dimethoxyphenyl)propylidene]]ester, [2S-[1(R*),2R[S[S*[1(R*),2R*]]]]]-(9Cl)], the “mean Cmax / maximal plasma level” value in data set [1] (0.01-1.0 mg/kg dose range, IV infusion over 2 hours) is 10 to 1275 ng/mL. In addition, the “plasma levels versus dose” value in data set [1] (0.01-1.0 mg/kg) is “directly proportional to dose”. Also, in data set [1] (1 volunteer at 1.0 mg/kg, 3 minutes after start of infusion, resolved after 32 minutes), the “adverse event considered possibly related to AP1903” value is reported as “vasodilatation”. In addition, the serious adverse events result in [1] (Phase 1 study in volunteers) is “No serious adverse events”. Further, the “incidence of adverse events” value in data set [1] (following each treatment, all mild in severity) is on record as “very low”. Further, the “sensitivity of CD3+CD19+ cells to AP1903 in vitro” value in the data set on CD3+CD19+ T cells is on record as “retain sensitivity”.
In the case of `COC(=O)C[C@H](NC(=O)[C@H](C)NC(=O)[C@@H](NC(=O)OCc1ccccc1)C(C)C)C(=O)CF` [zVAD-fmk] (Cbz-Val-Ala-Asp(OMe)-CH2F), in [2], the CID-induced apoptosis entry is given as “inhibited”.
Take `CC[C@H](C(=O)N1CCCC[C@H]1C(=O)O[C@H](CCc1ccc(OC)c(OC)c1)c1cccc(OCC(=O)NCC(CNC(=O)COc2cccc([C@@H](CCc3ccc(OC)c(OC)c3)OC(=O)[C@@H]3CCCCN3C(=O)[C@@H](CC)c3cc(OC)c(OC)c(OC)c3)c2)CN(C)C)c1)c1cc(OC)c(OC)c(OC)c1` [AP20187]: in the data set with iCasp9-transduced MSCs (50 nM CID, 24 hours, FACS example), the “annexin positive, iCasp9-CD19-positive cells (iCasp pos/CID)” value was “Ninety-three”. In the data set with iCasp9-transduced MSCs (magnetic immunoselection of iCasp9-CD19-positive cells), the “selected cells apoptotic after exposure to CID” value is reported as “More than 95%”. In addition, the cells remaining viable result in data set [3] (10 nM AP20187, day after CD19 selection, 24 hours) is reported as “about 5.5%±2.5%”. The “apoptosis / elimination of iCasp9-modified T cells after dimerizer (summary statements)” value in data set [3] (listed as small-molecule dimerizer) is above 90%. In the data set with non-transduced cells, the “viability with AP20187” value was “about 86%±9%”. Further, the “viral reactive subpopulations (HLA pentamers, EBV and CMV)” value in [4] is given as “spares (and thereby enriches) viral reactive subpopulations”. Further, the “killing / depletion of iCasp9-positive cells (qPCR)” value in [5] (1:1 mixture of doubly and singly transduced MSCs, two doses of CID) was above 99%. Moreover, the “proportion of surviving iCasp9-positive cells” value in data set [5] (mouse, in vivo) was 0.7 % of the original population. Moreover, in data set [5] (setting [8]), the “luminescence signal of MSCs transduced with iCasp9” value is listed as “quickly killed” and the “luminescence signal of cells negative for iCasp9” value was “not affected”. The “IL-12 in the supernatant” value in data set [6] is recorded as below 7.8 pg/mL. In addition, the “reduction in the number of human CD3+/GFP+ T cells” value in data set [7] is “more than 99%”.
